The numbers were not newly measured in US20220257611A1 (APTYS Pharmaceuticals SAS, priority 2019, published 2022), which cites them from elsewhere.

For series [1] the following is noted: in vivo.
For series [2] the following is noted: in vivo. The source holds these as a separate data set.

For the compound `CC(=O)Nc1ccc(O)cc1` [acetaminophen, N-acetyl-p-amino-phenol], the “median effective analgesic dose (median value and 95% confidence interval)” value in series [1] is reported as 500 mg.

In the case of `CN1CCOC(c2ccccc2)c2ccccc2C1` (centres unmarked) [nefopam, 5-methyl-1-phenyl-1,3,4,6-tetrahydro-2,5-benzoxazocine], the elimination half-life result in series [2] is listed as “four”.
